Measurements reported in patent EP1960783B1, “REDUCTION OF NON-SPECIFIC BINDING IN ASSAYS” (Siemens Healthcare Diagnostics Inc., priority 2005, dated 2007).

Test: Blocking of non-specific binding by candidate blocker additives in the LOCI assay for CTNI (troponin) on the VISTA analyzer
Settings: for % supression*: NSB 1 sample vs PBS control
From the text: Samples from a local blood bank were screened to determine if they produced a response with the troponin assay. Any donor sample that produced a positive result with the troponin test was assumed to be a false positive. This was confirmed by testing all samples that gave positive responses with at least one commercially available reference method. For the results reported here, the test results were confirmed using the Dade Behring DIMENSION Rxl® troponin (CTNI) test. The false positive samples were further screened for known causes of false positivity. The primary root cause of false positive results is human antibodies that bind mouse antibodies, an interference known as "HAMA" (Human Anti-Mouse Antibodies). The screening process used to determine if samples have HAMA interference consists of adding known HAMA binders (also known as blocking agents) that are available commercially from Roche and Scantibodies. If a sample that gives a positive response becomes normal when HAMA binders are added to the sample, the sample is assumed to be a false positive due to HAMA. Some samples were not corrected by the addition of HAMA binders. These were used in the testing described in the following examples.
An assay for CTNI, described in "Quantitation of Cardiac Markers by LOCI™ Technology", R. Bauer, et al., (Clinical Chemistry 2004; 50(6 supplement): A5) was used for evaluation of the candidate blocker compounds. The reagents for doing this assay consist of an antibody coated acceptor latex (acceptor bead) that emits light when contacted by singlet oxygen, a biotinylated antibody, and a streptavidin coated donor latex that produces singlet oxygen when illuminated by light of wavelengths that are absorbed by a photosensitizer dye dissolved in the latex particles. The streptavidin of the donor latex was bound to the latex particles through a spacer of dextran with aldehyde linking groups. In the case of the acceptor beads, the antibody was connected to the particles through a linking group or spacer that results from a combination of aminodextran and dextranaldehyde. For both latex reagents, the excess aldehyde groups remaining after linkage of the proteins are reacted with carboxymethoxyamine to quench the aldehydes.
These reagents are packaged in FLEX® containers that serve as reservoirs for the VISTA™ automated clinical analyzer that is described in "Development and Initial Performance of a New High-Volume Multi-Detector Analyzer: The DIMENSION VISTA™ Integrated System", T. Evers, et al. (Clinical Chemistry 2004; 50(6 supplement)) A31. The test kits and the analyzer are available from Dade Behring Inc., Newark, DE, USA. Candidate blocking reagents (soluble protein-polysaccharide conjugates (preformed or formed in situ) that reduce or eliminate interference from sample components) were tested by adding them (or a precursor such as, e.g., dextran aldehyde) to the biotinylated antibody reagent in prototype FLEX® containers or in some cases directly to the sample. FLEX® containers are from Dade Behring Inc.
Each test result shown in the tables below is the average of four test results. In general, the precision of the measurements was <2% CV for calibrators and for measurements of discrepant samples in those cases where effective blockers were used. The testing was done on different days with different instruments, so many control tests were needed to enable comparison of different sets of data.
Dextranaldehyde reacts with proteins to form Schiff's bases between the aldehyde functionality and the lysine amino groups of proteins thereby producing a conjugate. This reaction was accomplished by adding 5 mg/mL 500 kDa dextranaldehyde to the biotinylated antibody reagent of the CTNI FLEX® container, which contains 50 mg/mL of BSA in a pH 7.2 HEPES buffer with 1mg/mL 100-200 KDa dextran. […]

[1] = Table 4, additive 1 mg/mL added to sample
[2] = Table 4, additive 1 mg/mL added to calibrators and sample, held half an hour before testing
[3] = Table 5 Run 1, additive 5 mg/mL in biotinylated antibody reagent
[4] = Table 5 Run 2, additive 5 mg/mL in biotinylated antibody reagent

Substance: 100-200-Dexal-BSA-10: dextranaldehyde from 100-200 kDa dextran conjugated with BSA, 100 parts dextranaldehyde to 10 parts BSA
- % supression* [1]: 98.2%
- Test Result Counts Cal 0 [2]: 8,389 Counts
- Test Result Counts Cal 8 [2]: 954,766 Counts
- Test Result Counts NSB 1 [2]: 26,160 Counts

Substance: 100-200-Dexal-BSA-30: dextranaldehyde prepared from 100-200 kDa dextran conjugated with BSA at 100 parts dextranaldehyde to 30 parts BSA
- % supression* [1]: 99.7%
- Test Result Counts Cal 0 [2]: 8,460 Counts
- Test Result Counts Cal 8 [2]: 969,563 Counts
- Test Result Counts NSB 1 [2]: 11,242 Counts

Substance: 100-200-Dexal-BSA-50, first lot: 100-200 kDa dextranaldehyde conjugated with BSA, 100 parts to 50 parts
- % supression* [3]: 99.95%
- Test Result Counts Cal 0 [3]: 6,578 Counts
- Test Result Counts Cal 8 [3]: 743,213 Counts
- Test Result Counts NSB 1 [3]: 7,005 Counts

Substance: 100-200-Dexal-BSA-50, second lot: 100-200 kDa dextranaldehyde conjugated with BSA, 100 parts to 50 parts
- % supression* [3]: 100.00%
- Test Result Counts Cal 0 [3]: 7,136 Counts
- Test Result Counts Cal 8 [3]: 807,327 Counts
- Test Result Counts NSB 1 [3]: 7,134 Counts

Substance: 100-200-Dexal-BSA-100: 100-200 kDa dextranaldehyde conjugated with BSA, 100 parts to 100 parts
- % supression* [3]: 99.97%
- Test Result Counts Cal 0 [3]: 7,320 Counts
- Test Result Counts Cal 8 [3]: 823,386 Counts
- Test Result Counts NSB 1 [3]: 7,544 Counts

Substance: 100-200-Dexal-ovalbumin-100: 100-200 kDa dextranaldehyde conjugated with ovalbumin, 100 parts to 100 parts
- % supression* [4]: 95.93%
- Test Result Counts Cal 0 [4]: 6,370 Counts
- Test Result Counts Cal 8 [4]: 734,218 Counts
- Test Result Counts NSB 1 [4]: 39,569 Counts

Substance: 100-200-Dexat-ovalbumin-50: 100-200 kDa dextranaldehyde conjugated with ovalbumin, 100 parts to 50 parts
- % supression* [4]: 99.26%
- Test Result Counts Cal 0 [4]: 6,573 Counts
- Test Result Counts Cal 8 [4]: 749,661 Counts
- Test Result Counts NSB 1 [4]: 12,630 Counts

Substance: BSA conjugate formed in situ: conjugate formed by adding 5 mg/mL 500 kDa dextranaldehyde to reagent containing 50 mg/mL BSA
- blocking the nonspecific binding (summary in words of Table 2, discrepant samples NSB 1-29): nearly bringing the falsely elevated results to the same level as the zero calibrator
- blocking the interference (summary in words of Table 7, compared with the carboxymethyloxime derivative of dexal): significantly more effective
